Assay results reported in patent publication US11008313B2, “Substituted 1-methyl-1,2,3,4-tetrahydroisoquinoline molecules as PCSK9 allosteric binders” (Merck Sharp & Dohme Corp., priority 2016, dated 2021).

How the values were obtained:
PCSK9 [1] = target: T1, PCSK9 (Homo sapiens, UniProt Q8NBP7); assay: Differential scanning calorimetry (DSC) assay, direct binding / thermal stabilization of PCSK9; conditions: Tm(with compound)−Tm(no compound); 2 μM PCSK9, 300 μM test compound
Method in brief: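 Thermal stabilization of 2 μM PCSK9 with or without 300 μM compound in 25 mM HEPES pH 7.5, 150 mM NaCl, 1 mM CaCl2, 3.75% DMSO. Sample heated 20–80 °C at 200 °C/hr against buffer reference. Protein Tm derived from each thermogram.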

PCSK9 [2] = target: T1, PCSK9; assay: Fluorescence polarization competition binding assay (probe: compound of Example 57); conditions: 2 μM PCSK9, 50 nM compound of Example 57 as probe, overnight incubation; read-out: FP IC
Method in brief: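 Competition fluorescence-polarization binding: 2 μM PCSK9 with 50 nM fluorescent probe in 20 mM HEPES pH 7.5, 150 mM NaCl, 1 mM CaCl2, 0.005% P-20, incubated with test compound overnight in the dark. Anisotropy read; % inhibition relative to DMSO wells and probe-without-PCSK9 wells.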

T1 sequence (Q8NBP7 153-692): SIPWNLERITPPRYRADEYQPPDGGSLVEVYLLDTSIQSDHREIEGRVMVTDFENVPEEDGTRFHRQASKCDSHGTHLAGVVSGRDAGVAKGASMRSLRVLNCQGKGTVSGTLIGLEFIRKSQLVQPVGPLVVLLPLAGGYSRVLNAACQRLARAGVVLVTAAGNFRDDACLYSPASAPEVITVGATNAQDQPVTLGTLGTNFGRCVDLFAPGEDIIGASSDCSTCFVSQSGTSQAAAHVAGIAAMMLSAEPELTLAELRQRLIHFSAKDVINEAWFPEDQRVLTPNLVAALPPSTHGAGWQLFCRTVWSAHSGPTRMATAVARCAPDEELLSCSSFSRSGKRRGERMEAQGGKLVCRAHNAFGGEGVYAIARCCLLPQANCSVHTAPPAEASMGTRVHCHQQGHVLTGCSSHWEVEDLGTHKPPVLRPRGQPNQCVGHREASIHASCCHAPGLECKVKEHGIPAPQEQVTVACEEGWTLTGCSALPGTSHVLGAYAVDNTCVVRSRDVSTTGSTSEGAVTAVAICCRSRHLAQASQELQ

Structure (SMILES) | ΔTm at 300 µM (PCSK9 [1]) | IC50 (PCSK9 [2])
C[C@]1(CC(=O)Nc2nccs2)NCCc2cc(OCC3CCCO3)c(Oc3ccc(-c4c[nH]c5c(C(=O)O)cccc45)c(F)c3)cc21 (stereo partly drawn) [Example 20, 3-(2-fluoro-4-(((1R)-1-methyl-1-(2-oxo-2-(thiazol-2-ylamino)ethyl)-6-((tetrahydrofuran-2-yl)methoxy)-1,2,3,4-tetrahydroisoquinolin-7-yl)oxy)phenyl)-1H-indole-7-carboxylic acid] | 8.56 °C | 188 nM
COc1cc2c(cc1Oc1ccc(-c3ccc(C(=O)O)cc3)nc1)[C@@](C)(CC(=O)Nc1nccs1)NCC2 [Example 35, (R)-4-(5-((6-methoxy-1-methyl-1-(2-oxo-2-(thiazol-2-ylamino)ethyl)-1,2,3,4-tetrahydroisoquinolin-7-yl)oxy)pyridin-2-yl)benzoic acid] | 5.29 °C | 681 nM
COc1cc2c(cc1Oc1ccc(-c3ccc(C(=O)O)cc3F)nc1)[C@@](C)(CC(=O)Nc1nccs1)NCC2 [Example 33, (R)-3-fluoro-4-(5-((6-methoxy-1-methyl-1-(2-oxo-2-(thiazol-2-ylamino)ethyl)-1,2,3,4-tetrahydroisoquinolin-7-yl)oxy)pyridin-2-yl)benzoic acid] | 5.2 °C | 560 nM
COCCOc1cc2c(cc1Oc1ccc(C(=O)O)cc1)[C@@](C)(CC(=O)Nc1nccs1)NCC2 [Example 69, (R)-4-((6-(2-methoxyethoxy)-1-methyl-1-(2-oxo-2-(thiazol-2-ylamino)ethyl)-1,2,3,4-tetrahydroisoquinolin-7-yl)oxy)benzoic acid] | 7.65 °C | 541 nM
C[C@]1(CC(=O)Nc2nccs2)NCCc2cc(OCCn3cc(-c4cnccn4)nn3)c(Oc3ccc(C(=O)O)c(F)c3)cc21 [Example 49, (R)-2-fluoro-4-((1-methyl-1-(2-oxo-2-(thiazol-2-ylamino)ethyl)-6-(2-(4-(pyrazin-2-yl)-1H-1,2,3-triazol-1-yl)ethoxy)-1,2,3,4-tetrahydroisoquinolin-7-yl)oxy)benzoic acid] | 6.29 °C | 682 nM
C[C@]1(CC(=O)Nc2nccs2)NCCc2cc(OCc3ccccn3)c(Oc3cccc(F)c3)cc21 [Example 83, (R)-2-(7-(3-fluorophenoxy)-1-methyl-6-(pyridin-2-ylmethoxy)-1,2,3,4-tetrahydroisoquinolin-1-yl)-N-(thiazol-2-yl)acetamide] | 5.2 °C | 852 nM
Cc1ccc(C2C(C(=O)O)c3ccccc3C(=O)N2c2cccc(-c3cn(CCOc4cc5c(cc4Oc4ccc(C(=O)O)c(F)c4)[C@@](C)(CC(=O)Nc4nccs4)NCC5)nn3)c2)cc1 (stereo partly drawn) [Example 51, 2-(3-(1-(2-(((R)-7-(4-carboxy-3-fluorophenoxy)-1-methyl-1-(2-oxo-2-(thiazol-2-ylamino)ethyl)-1,2,3,4-tetrahydroisoquinolin-6-yl)oxy)ethyl)-1H-1,2,3-triazol-4-yl)phenyl)-1-oxo-3-(p-tolyl)-1,2,3,4-tetrahydroisoquinoline-4-carboxylic acid] | 6.87 °C | 705 nM
COc1cccc(NC(=O)C[C@@]2(C)NCCc3cc(OCC4CCCCO4)c(Oc4ccc(Br)c(F)c4)cc32)c1 (stereo partly drawn) [Example 86, 2-((1R)-7-(4-bromo-3-fluorophenoxy)-1-methyl-6-((tetrahydro-2H-pyran-2-yl)methoxy)-1,2,3,4-tetrahydroisoquinolin-1-yl)-N-(3-methoxyphenyl)acetamide] | 6.18 °C | 1.17 nM
COC(=O)c1cc(-c2ccc(Oc3cc4c(cc3OC)CCN[C@]4(C)CC(=O)Nc3nccs3)cn2)c[nH]1 [Example 17, methyl (R)-4-(5-((6-methoxy-1-methyl-1-(2-oxo-2-(thiazol-2-ylamino)ethyl)-1,2,3,4-tetrahydroisoquinolin-7-yl)oxy)pyridin-2-yl)-1H-pyrrole-2-carboxylate] | 2.62 °C | 11.5 nM
COC(=O)c1ccc(Oc2cc3c(cc2OCC2CCCCO2)CCN[C@]3(C)CC(=O)Nc2nccs2)cc1F (stereo partly drawn) [Example 72, methyl 2-fluoro-4-(((1R)-1-methyl-1-(2-oxo-2-(thiazol-2-ylamino)ethyl)-6-((tetrahydro-2H-pyran-2-yl)methoxy)-1,2,3,4-tetrahydroisoquinolin-7-yl)oxy)benzoate] | 6.15 °C | 680 nM
COC(=O)c1ccc(Oc2cc3c(cc2OCc2ncccn2)CCN[C@]3(C)CC(=O)Nc2nccs2)cc1F [Example 71, methyl (R)-2-fluoro-4-((1-methyl-1-(2-oxo-2-(thiazol-2-ylamino)ethyl)-6-(pyrimidin-2-ylmethoxy)-1,2,3,4-tetrahydroisoquinolin-7-yl)oxy)benzoate] | 6.36 °C | 645 nM
COc1cccc(NC(=O)C[C@@]2(C)NCCc3cc(OCC4CCCCO4)c(Oc4ccc(Br)c(F)c4)cc32)n1 (stereo partly drawn) [Example 87, 2-((1R)-7-(4-bromo-3-fluorophenoxy)-1-methyl-6-((tetrahydro-2H-pyran-2-yl)methoxy)-1,2,3,4-tetrahydroisoquinolin-1-yl)-N-(6-methoxypyridin-2-yl)acetamide] | 6.57 °C | 1.4 nM
C[C@]1(CC(=O)Nc2nccs2)NCCc2cc(OCCn3cc(CCCCCCCCC(=O)O)nn3)c(Oc3ccc(C(=O)O)c(F)c3)cc21 [Example 44, (R)-4-((6-(2-(4-(8-carboxyoctyl)-1H-1,2,3-triazol-1-yl)ethoxy)-1-methyl-1-(2-oxo-2-(thiazol-2-ylamino)ethyl)-1,2,3,4-tetrahydroisoquinolin-7-yl)oxy)-2-fluorobenzoic acid] | 6.89 °C | 426 nM
COc1cccc(NC(=O)C[C@@]2(C)NCCc3cc(OC)c(Oc4cccc(F)c4)cc32)c1 [Example 11, (R)-2-(7-(3-fluorophenoxy)-6-methoxy-1-methyl-1,2,3,4-tetrahydroisoquinolin-1-yl)-N-(3-methoxyphenyl)acetamide] | 5.69 °C | 756 nM
Cc1nnc(-c2cn(CCOc3cc4c(cc3Oc3ccc(C(=O)O)c(F)c3)[C@@](C)(CC(=O)Nc3nccs3)NCC4)nn2)o1 [Example 39, (R)-2-fluoro-4-((1-methyl-6-(2-(4-(5-methyl-1,3,4-oxadiazol-2-yl)-1H-1,2,3-triazol-1-yl)ethoxy)-1-(2-oxo-2-(thiazol-2-ylamino)ethyl)-1,2,3,4-tetrahydroisoquinolin-7-yl)oxy)benzoic acid] | 5.98 °C | 292 nM
COc1cc2c(cc1Oc1ccc(-c3ccc(C(=O)O)cc3)c(F)c1)[C@@](C)(CC(=O)Nc1nccs1)NCC2 [Example 22, (R)-2′-fluoro-4′-((6-methoxy-1-methyl-1-(2-oxo-2-(thiazol-2-ylamino)ethyl)-1,2,3,4-tetrahydroisoquinolin-7-yl)oxy)-[1,1′-biphenyl]-4-carboxylic acid] | 7.52 °C | 211 nM
COc1cccc(NC(=O)C[C@@]2(C)NCCc3cc(OCC4CCCCO4)c(Oc4ccc(-c5ccc(C(=O)O)cc5)c(F)c4)cc32)c1 (stereo partly drawn) [Example 85] | 9.62 °C | 170 nM
C[C@]1(CC(=O)Nc2nccs2)NCCc2cc(OCCn3cc(COc4ccccc4)nn3)c(Oc3ccc(C(=O)O)c(F)c3)cc21 [Example 47, (R)-2-fluoro-4-((1-methyl-1-(2-oxo-2-(thiazol-2-ylamino)ethyl)-6-(2-(4-(phenoxymethyl)-1H-1,2,3-triazol-1-yl)ethoxy)-1,2,3,4-tetrahydroisoquinolin-7-yl)oxy)benzoic acid] | 6.27 °C | 646 nM
